# Test results taken from patent publication US20240207250A1, “AGENT FOR PROMOTING LIPID REDUCTION” (MITSUBISHI GAS CHEMICAL COMPANY, INC., priority 2021, published 2024).
# Experiments:
# Assay type in all cases: in vivo
# daphnids (Daphnia magna) [1] = test: Measurement of body length of daphnids; settings: for Body Length (mm), Average: daphnids bred 4 days with substance, Arg-IPQ 80 mg/L, Leu-IPQ 80 mg/L, ECGC 1 mg/L, carnitine 2 mg/L, control 2.37 mm; for body length as compared with the control (Comparative Example 1), in words: daphnids bred 4 days with substance in breeding water
# daphnids (Daphnia magna) [2] = test: Measurement of fat mass of daphnids by Nile red fluorescence (lipid reduction promotion test); settings: for Body Fat Mass vs Comparative Example 1 (%), Average: Nile red fluorescence intensity, Comparative Example 1 (no IPQ) = 100, 5 daphnids, 4 days after addition to breeding water, H-IPQ 50 μM or 200 μM, Arg-IPQ 80 mg/L, Leu-IPQ 80 mg/L, ECGC 1 mg/L, carnitine 2 mg/L; for body fat mass as compared with the control (Comparative Example 1), in words: daphnids bred 4 days with substance in breeding water
# Description: In the present examples, […] (scientific name: Daphnia magna) were used in a lipid reduction promotion test. As chlorella (scientific name: Chlorella vulgaris) used as a feed for the […], a product of […] Center LLC was used. Specifically, parent […] bred in a water tank at 22° C. under a day cycle of an 8/16-hour light/dark cycle. The chlorella used as the feed was supplied in an amount of 8×10^7 on Monday, Wednesday, and Friday. Breeding water held in the water tank was exchanged at a frequency of once a week. Under these breeding conditions, child […] born from the parent […] used in the following examples. 10 child […] bred in 500 mL of mineral water (at 22° C.) under a day cycle of an 8/16-hour light/dark cycle. […] 10 child […] bred in 500 mL of mineral water (at 22° C.) under a day cycle of an 8/16-hour light/dark cycle. […] 10 child […] bred in 500 mL of mineral water (at 22° C.) under a day cycle of an 8/16-hour light/dark cycle. […] 10 child […] bred in 500 mL of mineral water (at 22° C.) under a day cycle of an 8/16-hour light/dark cycle. […] 10 child […] bred in 500 mL of mineral water (at 22° C.) under a day cycle of an 8/16-hour light/dark cycle. […] 10 child […] bred in 500 mL of mineral water (at 22° C.) under a day cycle of an 8/16-hour light/dark cycle. […] The fat mass was measured in accordance with Non Patent Literature 4. […] Thereafter, the […] washed with water, and taken out. Water was added thereto in an amount of 300 μL per […], and the resultant was ground by applying ultrasonic waves for 15 minutes. The thus obtained ground liquid was centrifuged to collect a supernatant. The resultant was measured for a fluorescence intensity through 485 nm excitation/535 nm detection using a plate reader. This measurement operation was performed on 5 […].
# daphnids (Daphnia magna) [3] = test: Caloric restriction equivalent amount from correlation between amount of feed and fat mass; settings: calculated from fat mass (fluorescence intensity) with feed/fat mass regression line; Comparative Example 1 = 0
# From the text: Then, the logarithm of the amount of the feed and the fat mass (fluorescence intensity) obtained after the breeding were plotted as illustrated in FIG. 2 (n=5). When an approximate straight line was drawn on the plots, the approximate straight line was represented by the following equation, and the correlation coefficient was R=0.996. [formula] [formula] [formula] This equation of the approximate straight line can be regarded as a relational expression between the logarithm of the amount of the feed, namely, calorie intake, and the fat mass (fluorescence intensity) after the breeding.
# daphnids (Daphnia magna) [4] = test: Evaluation of movement capability of daphnids (video analysis of moving distance); settings: for moving distance for 30 seconds, Daphnid 1: individual Daphnid 1, control 20.01 cm; for moving distance for 30 seconds, Daphnid 2: individual Daphnid 2, control 22.67 cm; for moving distance for 30 seconds, Daphnid 3: individual Daphnid 3, control 18.62 cm; for amount of exercise improved (times vs control): moving distance relative to control daphnids; for moving distance for 30 seconds, Average ± Standard Deviation: three daphnids, control 20.46 ± 2.06 cm
# Description: The daphnids bred under condition of no IPQ described in Comparative Example 1 (control), and the daphnids bred in the presence of H-IPQ, Arg-IPQ, and Leu-IPQ respectively described in Examples 1 to 3 were used. 20 mL of mineral water was put in each of four 100 mm-glass petri dishes, into each of which one daphnid bred in Comparative Example 1 and Examples 1 to 3 was transferred. These petri dishes were placed to be adjacent to one another, and the movement for 1 minute of the daphnids was recorded. This operation was repeated three times using different individuals. Then, Kinovea video analysis software was used to analyze a moving distance for 30 seconds of each daphnid.
# It is noted that the daphnids were in a state of always moving in the test, which is regarded as a state of exercise with an intensity of 3 METs or more in terms of human exercise intensity.
SMILES,"Body Length (mm), Average (daphnids (Daphnia magna) [1]) [mm]","Body Fat Mass vs Comparative Example 1 (%), Average (daphnids (Daphnia magna) [2]) [%]","body fat mass as compared with the control (Comparative Example 1), in words (daphnids (Daphnia magna) [2])",Caloric Restriction Equivalent Amount (0 meaning no caloric restriction) (daphnids (Daphnia magna) [3]) [%],"body length as compared with the control (Comparative Example 1), in words (daphnids (Daphnia magna) [1])","moving distance for 30 seconds, Daphnid 1 (daphnids (Daphnia magna) [4]) [cm]","moving distance for 30 seconds, Daphnid 2 (daphnids (Daphnia magna) [4]) [cm]","moving distance for 30 seconds, Daphnid 3 (daphnids (Daphnia magna) [4]) [cm]",amount of exercise improved (times vs control) (daphnids (Daphnia magna) [4]),"moving distance for 30 seconds, Average ± Standard Deviation (daphnids (Daphnia magna) [4]) [cm]"
"O=C(O[C@@H]1Cc2c(O)cc(O)cc2O[C@@H]1c1cc(O)c(O)c(O)c1)c1cc(O)c(O)c(O)c1 [Comparative Example 2, Epigallocatechin Gallate, reference compound]",2.43,102.0,neither increased not reduced,−7,–,–,–,–,–,–
"C[N+](C)(C)CC(O)CC(=O)[O-] (stereo not shown) [Comparative Example 3, carnitine, reference compound]",2.82,133.8,increased,−231,–,–,–,–,–,–
"O=C([O-])c1cc2c(=O)c3ncn4c(C(=O)[O-])cc(C(=O)[O-])c(c2[nH]1)c34.[Na+].[Na+].[Na+] [Example 1, glycine residue IPQ trisodium]",–,60.3,reduced,73,not grown to be very large,24.23,21.43,27.85,about 1.2 times,24.50 ± 3.22
"N=C(N)NCCCc1nc2c(=O)c3cc(C(=O)O)[nH]c3c3c(C(=O)[O-])cc(C(=O)[O-])n1c23.[Na+].[Na+] [Example 2, Arginine Residue IPQ Disodium]",2.64,79.7,reduced,45,grown to be larger,25.33,30.35,30.47,1.4 times,28.72 ± 2.93
"CC(C)Cc1nc2c(=O)c3cc(C(=O)O)[nH]c3c3c(C(=O)O)cc(C(=O)O)n1c23 [Example 3, leucine residue IPQ]",2.52,69.9,reduced,62,grown to be larger,26.78,21.56,20.53,1.1 times,22.96 ± 3.35
